How the values were obtained:
[1] = test system: LNCaP cells; test: Cell proliferation inhibition assay in LNCaP cells (0.2 nM DHT, CellTiter-Glo, 7 days); format: cell-based, human; settings: Homo sapiens, 168 h
Experimental: • 1. The human prostate cancer cell lines 22RV1 and LNCaP were purchased from ATCC. […] The cell concentration was adjusted to an appropriate concentration (determined based on the results of cell density optimization experiments), and the cells were seeded into a 96-well plate. A 100 µL cell suspension was added, resulting in 3000 cells per well. […] On the second day, for 22Rv1 cells, test compounds at different concentrations were added, and the cells were incubated at 37°C in a 5% CO2 incubator for 7 days; for LNCaP cells, test compounds at different concentrations were added first, and after 1 hour of treatment, 0.2 nM DHT was added. The cells were then incubated at 37°C in a 5% CO2 incubator for 7 days. • 4. After the incubation period, a volume of CellTiter-Glo detection reagent equal to the volume of the culture medium was added to each well. The plate was shaken and mixed thoroughly for 5 minutes, then incubated at room temperature for 10 minutes. Readings were taken using a PerkinElmer EnVision microplate reader. • 5.
The IC50 curve was fitted and the IC50 value was calculated using the software GraphPad Prism 8 with the calculation formula XY-analysis/Nonlinear regression (curve fit)/Dose response-Inhibition/log (inhibitor) vs. response-Variable slope (four parameters).

[2] = test system: 22RV1 cells; test: Cell proliferation inhibition assay in 22RV1 cells (CellTiter-Glo, 7 days); format: cell-based, human; settings: Homo sapiens
How it was run: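 22RV1 cells received compound alone; LNCaP cells were stimulated with 0.2 nM DHT added 1 h after compound. Seeding was 3000 cells/well.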

| Compound | IC50 [1] [nM] | IC50 ([2]; 168 h) [nM] | IC50 ([1]; LNCaP) [nM] | IC50 ([2]; 22Rv1, 168 h) [nM] |
| --- | --- | --- | --- | --- |
| CC(C)(c1ccc(-c2ccc(OCc3ccc(-c4ccc(P(C)(C)=O)nc4)cc3)cc2)cc1)c1cc(Cl)c(OCCCl)c(C#N)c1 [Compound 359] | 74 | 230 |  |  |
| CC(C)(c1ccc(-c2ncc(OCc3ccc(-c4cnc(P(C)(C)=O)cn4)cc3)cn2)cc1)c1cc(Cl)c(OCCCl)c(C#N)c1 [Compound 424] | 310 | 660 |  |  |
| CC(C)(c1ccc(-c2ccc(OCC3CCC4(CC3)CN(c3ccnc(P(C)(C)=O)n3)C4)cc2)cc1)c1cc(Cl)c(OCCCl)c(C#N)c1 [Compound 260] | 620 | 170 |  |  |
| CC(C)(c1ccc(-c2ccc(OCc3ccnc(N=S4(=O)CCN(CCO)CC4)n3)cc2)cc1)c1cc(Cl)c(OCCCl)c(C#N)c1 [Compound 164] | 480 | 45 |  |  |
| CC(C)(c1ccc(-c2ccc(OCc3ccnc(N=S4(=O)CCN(CC(F)F)CC4)n3)nc2)cc1)c1cc(Cl)c(OCCCl)c(C#N)c1 [Compound 264] | 980 | 250 |  |  |
| CC(C)(c1ccc(-c2ccc(OCC3CCC(CN4CC5(COC5)C4)CC3)cc2)cc1)c1cc(Cl)c(OCCCl)c(C#N)c1 (stereo not shown) [Compound 333] | 680 | 320 |  |  |
| CC(C)(c1ccc(-c2cnc(OCc3ccnc(N4CCC5(CC4)CS(=N)(=O)C5)n3)cn2)cc1)c1cc(Cl)c(OCCCl)c(C#N)c1 [Compound 444] | 130 | 120 |  |  |
| CC(=O)c1nccc(COc2ccc(-c3ccc(C(C)(C)c4cc(Cl)c(OCCCl)c(C#N)c4)cc3)cc2)n1 [Compound 440] | 570 | 990 |  |  |
| CC(C)(c1ccc(-c2cnc(OCC34CC(c5cnc(P(C)(C)=O)nc5)(C3)C4)nc2)cc1)c1cc(Cl)c(OCCCl)c(C#N)c1 [Compound 421] | 600 | 350 |  |  |
| CC(C)(c1ccc(-c2ccc(OCc3cnc(-c4cnc(P(C)(C)=O)nc4)cn3)nc2)cc1)c1cc(Cl)c(OCCCl)c(C#N)c1 [Compound 410] | 27000 | 880 |  |  |
| CC(C)(c1ccc(-c2ccc(OCc3ccnc(N4CC(S(=N)(=O)C5CC5)C4)n3)nc2)cc1)c1cc(Cl)c(OCCCl)c(C#N)c1 (stereo not shown) [Compound 356] | 410 | 790 |  |  |
| CC(C)(c1ccc(-c2cnc(OCc3ccnc(N4CC5(CCS5(=N)=O)C4)n3)cn2)cc1)c1cc(Cl)c(OCCCl)c(C#N)c1 (racemic) [Compound 375] | 59 | 120 |  |  |
| CC(C)(c1ccc(-c2ccc(OCc3ccnc(N4CC5(C4)CS(=N)(=O)C5)n3)cn2)cc1)c1cc(Cl)c(OCCCl)c(C#N)c1 [Compound 422] | 530 | 690 |  |  |
| CC(C)(c1ccc(-c2ccc(OCc3ccc(-c4cnc(N5CC6(C5)CS(=N)(=O)C6)nc4)cc3)cc2)cc1)c1cc(Cl)c(OCCCl)c(C#N)c1 [Compound 317] | 270 | 1040 |  |  |
| CC(C)(c1ccc(-c2ccc(OCc3ccc(-c4ccc(P(C)(C)=O)nn4)cc3)cc2)cc1)c1cc(Cl)c(OCCCl)c(C#N)c1 [Compound 394] | 76 | 110 |  |  |
| CC(C)(c1ccc(-c2ccc(OCc3ccnc(N4CC(S(C)(=N)=O)C4)n3)nc2)cc1)c1cc(Cl)c(OCCCl)c(C#N)c1 (stereo not shown) [Compound 357] |  |  | 440 | 830 |
| CC(C)(c1ccc(-c2ccc(OCCOc3nccc(N4CC5(COC5)C4)n3)cc2)cc1)c1cc(Cl)c(OCCCl)c(C#N)c1 [Compound 203] |  |  | 440 | 47 |
| CC(C)(O)CN1CCS(=O)(=Nc2nccc(COc3ccc(-c4ccc(C(C)(C)c5cc(Cl)c(OCCCl)c(C#N)c5)cc4)cc3)n2)CC1 [Compound 254] | 440 | 160 |  |  |
| CC(C)(c1ccc(-c2ccc(OCc3nccnc3P(C)(C)=O)cc2)cc1)c1cc(Cl)c(OCCCl)c(C#N)c1 [Compound 358] | 240 | 570 |  |  |
| CC(C)(c1ccc(-c2ccc(OCc3ccnc(N=S4(=O)CCC(F)(F)CC4)n3)cc2)cc1)c1cc(Cl)c(OCCCl)c(C#N)c1 [Compound 288] | 550 | 74 |  |  |
| CC(C)(c1ccc(-c2ccc(OCc3ccc(-c4cnc(P(C)(C)=O)nc4)nc3)nc2)cc1)c1cc(Cl)c(OCCCl)c(C#N)c1 [Compound 398] | 120 | 510 |  |  |
| CC(C)(c1ccc(-c2ccc(OCC34CC(c5cnc(P(C)(C)=O)nc5)(C3)C4)nc2)cc1)c1cc(Cl)c(OCCCl)c(C#N)c1 [Compound 445] | 80 | 130 |  |  |
| CC(C)(c1ccc(-c2ccc(OCc3ccc(-c4cnc(P(C)(C)=O)cn4)cc3)cc2)cc1)c1cc(Cl)c(OCCCl)c(C#N)c1 [Compound 419] | 130 | 130 |  |  |
| CC(C)(c1ccc(-c2cnc(OCc3ccnc(N4CC(S(=N)(=O)C5CC5)C4)n3)cn2)cc1)c1cc(Cl)c(OCCCl)c(C#N)c1 (single isomer, unassigned) [Compound 350B] | 500 |  |  |  |

Further molecules by falling IC50 [1], results first:

| IC50 [1] [nM] | IC50 ([2]; 168 h) [nM] | Compound | IC50 ([1]; LNCaP) [nM] | IC50 ([2]; 22Rv1, 168 h) [nM] |
| --- | --- | --- | --- | --- |
| 760 | 190 | CC(C)(c1ccc(-c2ccc(OCCN3CCS(=O)(=O)CC3)cc2)cc1)c1cc(Cl)c(OCCCl)c(C#N)c1 [Compound 298] |  |  |
| 660 | 840 | CC(C)(c1ccc(-c2cnc(COc3ccnc(P(C)(C)=O)n3)cn2)cc1)c1cc(Cl)c(OCCCl)c(C#N)c1 [Compound 432] |  |  |
| 650 | 180 | CC(C)(c1ccc(-c2ccc(OCc3ccnc(N=S4(=O)CCN(CC(O)c5ccccc5)CC4)n3)cc2)cc1)c1cc(Cl)c(OCCCl)c(C#N)c1 (stereo not shown) [Compound 435] |  |  |
| 550 | 930 | CC1(CO)CN(c2nccc(COc3cnc(-c4ccc(C(C)(C)c5cc(Cl)c(OCCCl)c(C#N)c5)cc4)cn3)n2)C1 [Compound 365] |  |  |
| 530 | 370 | CC(C)(c1ccc(-c2cnc(OCc3ccnc(N4CC(N=S(C)(C)=O)C4)n3)cn2)cc1)c1cc(Cl)c(OCCCl)c(C#N)c1 [Compound 388] |  |  |
| 500 | 860 | CC(C)(c1ccc(-c2cnc(OCc3ccnc(N4CC(S(C)(=O)=O)C4)n3)nc2)cc1)c1cc(Cl)c(OCCCl)c(C#N)c1 [Compound 342] |  |  |
| 430 | 950 | CC(C)(c1cc(Cl)c(OCCCl)c(C#N)c1)c1ccc(-c2ccc(OCc3ccnc(N4CC(S(C)(=O)=O)C4)n3)cn2)cn1 [Compound 471] |  |  |
| 420 | 290 | CC(C)(c1ccc(-c2ccc(OCc3ccnc(N4CC5(COC5)C4)n3)nc2)cc1)c1cc(Cl)c(OCCCl)c(C#N)c1 [Compound 209] |  |  |
| 410 | 860 | CC(C)(c1ccc(-c2ccc(OCc3ccc(-c4cnc(N5CC(S(C)(=O)=O)C5)nc4)cc3)c(C#N)c2)cc1)c1cc(Cl)c(OCCCl)c(C#N)c1 [Compound 382] |  |  |
| 400 | 250 | CC(C)(c1ccc(-c2cnc(OCc3ccc(-c4cnc(P(C)(C)=O)nc4)cc3)cn2)cc1)c1cc(Cl)c(OCCCl)c(C#N)c1 [Compound 361] |  |  |
| 360 | 940 | CN=S(C)(=O)C1CN(c2nccc(COc3ccc(-c4ccc(C(C)(C)c5cc(Cl)c(OCCCl)c(C#N)c5)cc4)nc3)n2)C1 (stereo not shown) [Compound 414] |  |  |
| 300 | 60 | CC(C)(c1ccc(-c2ccc(OCc3ccnc(N=S4(=O)CCNCC4)n3)cc2)cc1)c1cc(Cl)c(OCCCl)c(C#N)c1 [Compound 108] |  |  |
| 250 | 640 | CC(C)(c1ccc(-c2cnc(OCc3ccc(-c4cnc(P(C)(C)=O)nc4)nc3)cn2)cc1)c1cc(Cl)c(OCCCl)c(C#N)c1 [Compound 373] |  |  |
| 160 | 380 | CC(C)(c1ccc(-c2ccc3cc(OCc4ccnc(P(C)(C)=O)n4)ccc3c2)cc1)c1cc(Cl)c(OCCCl)c(C#N)c1 [Compound 442] |  |  |
| 140 | 310 | CC(C)(c1cnc(-c2ccc(OCc3ccnc(N4CC(S(C)(=O)=O)C4)n3)cc2)nc1)c1cc(Cl)c(OCCCl)c(C#N)c1 [Compound 446] |  |  |
| 120 | 1050 | CC(C)(c1ccc(-c2cnc(OCC34CC(c5cnc(P(C)(C)=O)nc5)(C3)C4)cn2)cc1)c1cc(Cl)c(OCCCl)c(C#N)c1 [Compound 322] |  |  |
| 110 | 950 | CC(C)(c1ccc(-c2ccc(OCc3ccc(-c4cnc(P(C)(C)=O)nc4)cn3)nc2)cc1)c1cc(Cl)c(OCCCl)c(C#N)c1 [Compound 397] |  |  |
| 100 | 380 | CC(C)(c1ccc(-c2cnc(OCc3ccnc(N4CC5(CCS(=N)(=O)CC5)C4)n3)cn2)cc1)c1cc(Cl)c(OCCCl)c(C#N)c1 [Compound 377] |  |  |
| 99 | 660 | CC(C)(c1ccc(-c2cnc(OCc3cnc(-c4cnc(P(C)(C)=O)nc4)cn3)nc2)cc1)c1cc(Cl)c(OCCCl)c(C#N)c1 [Compound 402] |  |  |
| 93 | 88 | CC(C)(c1ccc(-c2ccc(OCc3ccnc(N4C5CCC4CC(S(C)(=O)=O)C5)n3)cc2)cc1)c1cc(Cl)c(OCCCl)c(C#N)c1 (stereo not shown) [Compound 463] |  |  |
| 44 | 170 | CC(C)(c1cc(Cl)c(OCCCl)c(C#N)c1)c1ccc(-c2ccc(OCc3ccnc(N4CC(S(C)(=O)=O)C4)n3)cc2)cn1 [Compound 476] |  |  |
| 42 | 160 | CNS(=O)(=O)C1CN(c2nccc(COc3cnc(-c4ccc(C(C)(C)c5cc(Cl)c(OCCCl)c(C#N)c5)cc4)cn3)n2)C1 [Compound 462] |  |  |

— patent EP4778922A1, “BICYCLIC COMPOUND, AND PREPARATION METHOD THEREFOR AND PHARMACEUTICAL USE THEREOF” (Shanghai Jeyou Pharmaceutical Co., Ltd., priority 2023, dated 2025)
